Where two headings read alike, the source gives them in different places.

This is an account of results in patent US20230002352A1, “SULFONAMIDE DERIVATIVES AS CTPS1 INHIBITORS” (Step Pharma S.A.S., priority 2019, published 2023).

Assay [1] addresses T1, human CTPS1 (Homo sapiens, UniProt P17812).
T1 construct: purchased Proteros biostructures GmbH
T1 sequence (P17812 1-591): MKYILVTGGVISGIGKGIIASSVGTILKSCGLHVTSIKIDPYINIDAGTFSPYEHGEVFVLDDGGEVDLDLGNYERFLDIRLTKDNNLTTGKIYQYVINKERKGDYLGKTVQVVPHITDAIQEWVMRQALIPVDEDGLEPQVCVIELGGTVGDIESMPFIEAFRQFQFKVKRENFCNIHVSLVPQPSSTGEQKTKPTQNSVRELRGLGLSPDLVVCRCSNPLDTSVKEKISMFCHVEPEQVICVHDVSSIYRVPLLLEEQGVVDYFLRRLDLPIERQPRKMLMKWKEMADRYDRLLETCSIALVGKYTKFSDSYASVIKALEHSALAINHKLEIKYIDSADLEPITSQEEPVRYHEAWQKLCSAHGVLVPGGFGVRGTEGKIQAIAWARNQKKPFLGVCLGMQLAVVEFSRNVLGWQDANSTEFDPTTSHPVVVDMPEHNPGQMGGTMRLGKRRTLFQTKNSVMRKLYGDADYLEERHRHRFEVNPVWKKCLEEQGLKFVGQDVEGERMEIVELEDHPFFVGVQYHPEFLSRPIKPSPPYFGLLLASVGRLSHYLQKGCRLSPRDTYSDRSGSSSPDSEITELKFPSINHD
As to the kind of experiment: Human CTPS1 enzyme inhibition (ADP-Glo Max assay). Format: biochemical. As to conditions: read-out: CTPS1 (Human CTPS1 Enzyme Inhibition data grouped by potency range, IC50). In outline: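 Full-length FLAG-His-tagged human CTPS1 and compound were preincubated 10 min at 25 °C in 50 mM Tris pH 8.0, 10 mM MgCl2, 0.01% Tween-20, 2 mM L-cysteine. Substrate mix: ATP 0.31 mM, GTP 0.034 mM, UTP 0.48 mM, glutamine 0.186 mM; linear-phase reaction at 25 °C. ADP-Glo Max luminescence; IC50 from inhibition curve.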

Assay [2] deals with human CTPS1 versus CTPS2. As to the kind of experiment: Human CTPS1 versus CTPS2 selectivity assessment by RapidFire/MS analysis. It is filed as biochemical. A digest of the protocol: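 Full-length human CTPS1 or CTPS2 was preincubated 10 min with compound in HEPES pH 8.0 at 25 °C. The 2× substrate mix was, for CTPS1, ATP 0.3, UTP 0.2, GTP 0.07 and glutamine 0.1 mM; for CTPS2, ATP 0.1, UTP 0.04, GTP 0.03 and glutamine 0.1 mM. The CTP/labelled-CTP ratio by RapidFire MS gave IC50, and selectivity was a fold ratio.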

Turning to `CCOc1cncc(-c2ccc(NC(=O)C3(c4ccnc(NS(=O)(=O)CC#N)n4)CCOCC3)nc2)n1` [Example P287, 4-(2-((cyanomethyl)sulfonamido)pyrimidin-4-yl)-N-(5-(6-ethoxypyrazin-2-yl)pyridin-2-yl)tetrahydro-2H-pyran-4-carboxamide], in assay [1] (Table 25, compounds where R1 is substituted by CN), the IC50 was at most 100 nM. Further, the “CTPS1 (Selectivity data)” value in assay [2] (Table 28, compounds where R1 is substituted by CN) was “+++ (>60 fold (+++))”.
As to `CCOc1cncc(-c2ccc(NC(=O)C(C)(C)c3ccnc(NS(=O)(=O)C4CC4)n3)nc2)n1` [Example P31], in assay [1] (Table 23, ADP-Glo Max assay), the IC50 is at most 100 nM. Moreover, the “Selectivity (fold selectivity between CTPS1 and CTPS2)” value in assay [2] (Table 26) was “+++ (>60 fold (+++))”.
Turning to `CCOc1cncc(-c2ccc(NC(=O)C3(c4ccnc(NS(=O)(=O)C5CC5)n4)CCCC3)nc2)n1` [Example P136], in assay [1] (Table 23, ADP-Glo Max assay), the concentration for half-maximal inhibition (IC50) is at most 100 nM. Moreover, the “Selectivity (fold selectivity between CTPS1 and CTPS2)” value in assay [2] (Table 26) is recorded as “+++ (>60 fold (+++))”.
As to `CCOc1cncc(-c2ccc(NC(=O)C3(c4ccnc(NS(=O)(=O)C5CC5)n4)CCC(=O)CC3)nc2)n1` [Example P226, 1-(2-(Cyclopropanesulfonamido)pyrimidin-4-yl)-N-(5-(6-ethoxypyrazin-2-yl)pyridin-2-yl)-4-oxocyclohexanecarboxamide], the IC50 in assay [1] (Table 24, ADP-Glo Max assay) is at most 100 nM. The “Selectivity (fold selectivity between CTPS1 and CTPS2)” value in assay [2] (Table 27) is “+++ (>60 fold (+++))”.
Take `O=C(Cc1ccnc(NS(=O)(=O)C2CC2)n1)Nc1ccc(-c2cccnc2)cc1` [Example P16]: the 50% inhibitory concentration (IC50) in assay [1] (Table 23, ADP-Glo Max assay) was 100 to 1000 nM. The “Selectivity (fold selectivity between CTPS1 and CTPS2)” value in assay [2] (Table 26) is “++ (>30-60 fold (++))”.
Taken in the same sequence, the figures for `CCOc1cncc(-c2ccc(NC(=O)C(C)(C)c3cncc(NS(=O)(=O)C4CC4)n3)nc2)n1` [Example P195] were at most 100 nM and “+++ (>60 fold (+++))”.
For `CCOc1cncc(-c2ccc(NC(=O)C(CC)c3ccnc(NS(=O)(=O)C4CC4)n3)c(C)c2)n1` (stereo not shown) [Example P161] the same measures were at most 100 nM and “+ (2-30 fold (+))”.
For `CCOc1cncc(-c2ccc(NC(=O)C(C)(C)c3ccnc(NS(=O)(=O)CC)n3)cc2)n1` [Example P74] the same measures were 100 to 1000 nM and “++ (>30-60 fold (++))”.
With `CCOc1cncc(-c2ccc(NC(=O)C3(c4ccnc(NS(=O)(=O)C5CC5)n4)CCC(N(C)C)CC3)nc2)n1` (single isomer, unassigned) [Example P230, 1-(2-(cyclopropanesulfonamido)pyrimidin-4-yl)-4-(dimethylamino)-N-(5-(6-ethoxypyrazin-2-yl)pyridin-2-yl)cyclohexane-1-carboxamide], in assay [1] (Table 24, ADP-Glo Max assay), the IC50 is at most 100 nM. Moreover, the “Selectivity (fold selectivity between CTPS1 and CTPS2)” value in assay [2] (Table 27) is on record as “+++ (>60 fold (+++))”.
Consider `CCC(C(=O)Nc1ncc(-c2cncc(OC)n2)cc1F)c1ccnc(NS(=O)(=O)C2CC2)n1` (stereo not shown) [Example P158], for which the half-maximal inhibitory concentration (IC50) in assay [1] (Table 23, ADP-Glo Max assay) was in the range of 100 to 1000 nM. In addition, the “Selectivity (fold selectivity between CTPS1 and CTPS2)” value in assay [2] (Table 26) was “+ (2-30 fold (+))”.
For `CC(C)Oc1cncc(-c2ccc(NC(=O)C(C)(C)c3ccnc(NS(=O)(=O)C4CC4)n3)c(F)c2)n1` [Example P39] the same measures were at most 100 nM and “+ (2-30 fold (+))”.
Taken in the same sequence, the figures for `CC(C)(C(=O)Nc1ccc(-c2cncc(C3CC3)n2)cc1F)c1ccnc(NS(=O)(=O)C2CC2)n1` [Example P128] were 100 to 1000 nM and “+ (2-30 fold (+))”.
With `CCOc1cncc(-c2ccc(NC(=O)C3(c4ccnc(NS(=O)(=O)C5CC5)n4)CCCC3)cc2)n1` [Example P2, 1-(2-(Cyclopropanesulfonamido)pyrimidin-4-yl)-N-(4-(6-ethoxypyrazin-2-yl)phenyl)cyclopentanecarboxamide], the IC50 in assay [1] (Table 23, ADP-Glo Max assay) was at most 100 nM. The “Selectivity (fold selectivity between CTPS1 and CTPS2)” value in assay [2] (Table 26) is “+++ (>60 fold (+++))”.
On to `CCOc1cncc(-c2ccc(NC(=O)C(C)(C)c3nc(NS(=O)(=O)C4CC4)ncc3C)cc2)n1` [Example P70], for which the IC50 in assay [1] (Table 23, ADP-Glo Max assay) lay in the range of 1000 to 10000 nM. The “Selectivity (fold selectivity between CTPS1 and CTPS2)” value in assay [2] (Table 26) is “+ (2-30 fold (+))”.

As a reminder, the IC50 is the concentration that inhibits the measured activity by half.
